Test results published in patent US20260274814A1, “THIENYL COMPOUNDS FOR THE TREATMENT OF A CENTRAL NERVOUS SYSTEM DISEASE OR DISORDER” (Coreterra Therapeutics, Inc., priority 2023, published 2026).
Structures can show the parent of a compound that is named as a salt.

Test system: mice
Test: Neuropharmacological Assay (SmartCube): automated behavioral signature of compound-treated mice compared with a database of reference drug classes
Format: in vivo
Conditions: for minimal effective dose: Mus musculus, ip, read-out: MED; for minimal effective dose / MED: minimal effective dose: dose having 45% or more total activity in SmartCube, i.p., if only one dose tested, that dose is shown; for AG / AN / AP / AX / CE / MS / AD / HL / PS / SH / UK: SmartCube class probability, 3.0 mg/kg i.p., 15 min before test
Outline: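 Probabilities reflect how closely the digitally recorded behavioural signature at 3.0 mg/kg i.p. matched each reference class (antipsychotic, anxiolytic, antidepressant etc.). Dosing occurred 15 min before testing. Minimal effective dose was the dose giving 45% or more total activity.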

Row | Structure (SMILES) | minimal effective dose [mg/kg] | AG | AN | AP | AX | CE | MS | AD (hydrochloride, 3 mg/kg) | HL (hydrochloride, 3 mg/kg) | UK (hydrochloride, 3 mg/kg) | MED [mpk] | HL | PS | SH | AX (hydrochloride, 3 mg/kg) | AD | also measured
1 | Cc1csc2c1CC(N)CC2 (single isomer, unassigned) [Compound 143, 3-methyl-4,5,6,7-tetrahydrobenzothiophen-5-amine hydrochloride] | 1 | ND (^ <4%) | ND (^ <4%) | ND (^ <4%) | ND (^ <4%) | ND (^ <4%) | ND (^ <4%) | + (≥4%) | + (≥4%) | ND (^ <4%) | – | – | – | – | – | – | PS (hydrochloride, 3 mg/kg): ++ (≥24%); SH (hydrochloride, 3 mg/kg): + (≥4%)
2 | Cc1csc2c1CC(N)CC2 (single isomer, unassigned) [Compound 144, 3-methyl-4,5,6,7-tetrahydrobenzothiophen-5-amine hydrochloride] | – | ND (^ <4%) | ND (^ <4%) | ND (^ <4%) | ND (^ <4%) | ND (^ <4%) | ND (^ <4%) | ND (^ <4%) | ND (^ <4%) | ++++ (≥74%) | 1 | – | – | – | – | – | PS (hydrochloride, 3 mg/kg): ND (^ <4%); SH (hydrochloride, 3 mg/kg): ND (^ <4%)
3 | CNC1CCc2cc(Cl)sc2C1 (single isomer, unassigned) [Compound 145, 2-chloro-N-methyl-4,5,6,7-tetrahydrobenzothiophen-6-amine hydrochloride] | 3 | ND (^ <4%) | ND (^ <4%) | ND (^ <4%) | ND (^ <4%) | ND (^ <4%) | ND (^ <4%) | ++++ (≥74%) | – | ND (^ <4%) | – | ND (^ <4%) | ND (^ <4%) | ND (^ <4%) | – | – | –
4 | CNC1CCc2cc(Cl)sc2C1 (single isomer, unassigned) [Compound 146, 2-chloro-N-methyl-4,5,6,7-tetrahydrobenzothiophen-6-amine hydrochloride] | – | ND (^ <4%) | ND (^ <4%) | ND (^ <4%) | ND (^ <4%) | ND (^ <4%) | ND (^ <4%) | ND (^ <4%) | – | +++ (≥49%) | 3 | ND (^ <4%) | ND (^ <4%) | ND (^ <4%) | – | – | –
5 | CNC1CCc2c(sc(Cl)c2C)C1 (single isomer, unassigned) [Compound 147, 2-chloro-N, 3-dimethyl-4,5,6,7-tetrahydrobenzothiophen-6-amine hydrochloride] | 3 | ND (^ <4%) | – | – | – | ND (^ <4%) | ND (^ <4%) | ND (^ <4%) | + (≥4%) | +++ (≥49%) | – | – | ND (^ <4%) | ND (^ <4%) | ND (^ <4%) | – | AN (hydrochloride, 3 mg/kg): + (≥4%); AP (hydrochloride, 3 mg/kg): ND (^ <4%)
6 | CNC1CCc2c(sc(Cl)c2C)C1 (single isomer, unassigned) [Compound 148, 2-chloro-N, 3-dimethyl-4,5,6,7-tetrahydrobenzothiophen-6-amine hydrochloride] | – | ND (^ <4%) | – | – | – | ND (^ <4%) | ND (^ <4%) | +++ (≥49%) | ND (^ <4%) | ND (^ <4%) | 3 | – | ND (^ <4%) | ND (^ <4%) | ++ (≥24%) | – | AN (hydrochloride, 3 mg/kg): ND (^ <4%); AP (hydrochloride, 3 mg/kg): + (≥4%)
7 | CNC1(C)CCc2c(csc2C)C1 (single isomer, unassigned) [Compound 149, N, 1,5-trimethyl-6,7-dihydro-4H-2-benzothiophen-5-amine hydrochloride] | 3 | ND (^ <4%) | ND (^ <4%) | ND (^ <4%) | ND (^ <4%) | ND (^ <4%) | ND (^ <4%) | – | + (≥4%) | – | – | – | – | ND (^ <4%) | – | ND (^ <4%) | UK: ND (^ <4%); PS (hydrochloride, 3 mg/kg): ++++ (≥74%)
8 | CNC1(C)CCc2c(csc2C)C1 (single isomer, unassigned) [Compound 150, N, 1,5-trimethyl-6,7-dihydro-4H-2-benzothiophen-5-amine hydrochloride] | – | ND (^ <4%) | ND (^ <4%) | ND (^ <4%) | ND (^ <4%) | ND (^ <4%) | ND (^ <4%) | – | +++ (≥49%) | – | 3 | – | – | ND (^ <4%) | – | ND (^ <4%) | UK: ND (^ <4%); PS (hydrochloride, 3 mg/kg): ++ (≥24%)
9 | CNC1CCc2sc(Cl)cc2C1 (single isomer, unassigned) [Compound 151, 2-chloro-N-methyl-4,5,6,7-tetrahydrobenzothiophen-5-amine hydrochloride] | 3 | ND (^ <4%) | ND (^ <4%) | ND (^ <4%) | ND (^ <4%) | ND (^ <4%) | ND (^ <4%) | – | – | +++ (≥49%) | – | ND (^ <4%) | ND (^ <4%) | ND (^ <4%) | – | ND (^ <4%) | –
10 | CNC1CCc2sc(Cl)cc2C1 (single isomer, unassigned) [Compound 152, 2-chloro-N-methyl-4,5,6,7-tetrahydrobenzothiophen-5-amine hydrochloride] | – | ND (^ <4%) | ND (^ <4%) | ND (^ <4%) | ND (^ <4%) | ND (^ <4%) | ND (^ <4%) | – | – | ++ (≥24%) | 3 | ND (^ <4%) | ND (^ <4%) | ND (^ <4%) | – | ND (^ <4%) | –
11 | CNC1CCc2csc(C3CC3)c2C1 (single isomer, unassigned) [Compound 154, 3-cyclopropyl-N-methyl-4,5,6,7-tetrahydro-2-benzothiophen-5-amine hydrochloride] | – | ND (^ <4%) | ND (^ <4%) | ND (^ <4%) | ND (^ <4%) | – | – | ND (^ <4%) | – | – | – | ND (^ <4%) | ND (^ <4%) | – | – | – | UK: ND (^ <4%); CE (hydrochloride, 3 mg/kg): ND (^ <4%); MS (hydrochloride, 3 mg/kg): ND (^ <4%); SH (hydrochloride, 3 mg/kg): ND (^ <4%); MED (hydrochloride): >1 mpk
12 | CNC1CCc2csc(C3CC3)c2C1 (single isomer, unassigned) [Compound 155, 3-cyclopropyl-N-methyl-4,5,6,7-tetrahydro-2-benzothiophen-5-amine hydrochloride] | – | ND (^ <4%) | ND (^ <4%) | ND (^ <4%) | ND (^ <4%) | – | – | + (≥4%) | – | – | – | ND (^ <4%) | ND (^ <4%) | – | – | – | UK: ND (^ <4%); CE (hydrochloride, 3 mg/kg): + (≥4%); MS (hydrochloride, 3 mg/kg): + (≥4%); SH (hydrochloride, 3 mg/kg): ++ (≥24%); MED (hydrochloride): 0.3 mpk
13 | CN(C)C1CCc2cscc2C1.Cl (single isomer, unassigned) [Compound 156, N,N-dimethyl-4,5,6,7-tetrahydro-2-benzothiophen-5-amine hydrochloride] | 3 | ND (^ <4%) | ND (^ <4%) | ND (^ <4%) | – | ND (^ <4%) | ND (^ <4%) | – | – | ++ (≥24%) | – | ND (^ <4%) | ND (^ <4%) | ND (^ <4%) | ++ (≥24%) | ND (^ <4%) | –
14 | CN(C)C1CCc2cscc2C1.Cl (single isomer, unassigned) [Compound 157, N,N-dimethyl-4,5,6,7-tetrahydro-2-benzothiophen-5-amine hydrochloride] | – | ND (^ <4%) | ND (^ <4%) | ND (^ <4%) | – | ND (^ <4%) | ND (^ <4%) | – | – | ND (^ <4%) | 3 | ND (^ <4%) | ND (^ <4%) | ND (^ <4%) | +++ (≥49%) | ND (^ <4%) | –
15 | c1scc2c1CCC(NCC1CC1)C2 (single isomer, unassigned) [Compound 158, N-(cyclopropylmethyl)-4,5,6,7-tetrahydro-2-benzothiophen-5-amine hydrochloride] | – | ND (^ <4%) | ND (^ <4%) | ND (^ <4%) | – | ND (^ <4%) | ND (^ <4%) | – | – | ND (^ <4%) | – | ND (^ <4%) | ND (^ <4%) | ND (^ <4%) | ++++ (≥74%) | ND (^ <4%) | MED (hydrochloride): 1 mpk
16 | c1scc2c1CCC(NCC1CC1)C2 (single isomer, unassigned) [Compound 159, N-(cyclopropylmethyl)-4,5,6,7-tetrahydro-2-benzothiophen-5-amine hydrochloride] | – | ND (^ <4%) | ND (^ <4%) | ND (^ <4%) | – | ND (^ <4%) | ND (^ <4%) | – | – | + (≥4%) | – | ND (^ <4%) | ND (^ <4%) | ND (^ <4%) | ND (^ <4%) | ND (^ <4%) | MED (hydrochloride): >3 mpk
